Assay results published in ChEMBL document CHEMBL1201862, “PubChem BioAssay data set” (2004).
Activity calls are given as the source filed them.

What was measured:
HEK293 [1] = assay: cells; assay type: functional, cell-based; details: Homo sapiens
HEK293 [2] = assay: NOD1 signaling inhibitors, primary screen, cell-based, luminescence, uHTS (AID 1578); assay type: functional; details: Homo sapiens
HEK293 [3] = assay: cells; assay type: functional, cell-based; details: Homo sapiens; remark: listed apart in the source
[4] = molecular target: Nucleotide-binding oligomerization domain-containing protein 2 (Homo sapiens, UniProt Q9HC29); assay: NOD2 signaling inhibitors, cell-based, luminescence, uHTS, HEK293 (AID 1566); assay type: functional
Sequence of Nucleotide-binding oligomerization domain-containing protein 2 (Q9HC29 whole entry, the tested form may be a part): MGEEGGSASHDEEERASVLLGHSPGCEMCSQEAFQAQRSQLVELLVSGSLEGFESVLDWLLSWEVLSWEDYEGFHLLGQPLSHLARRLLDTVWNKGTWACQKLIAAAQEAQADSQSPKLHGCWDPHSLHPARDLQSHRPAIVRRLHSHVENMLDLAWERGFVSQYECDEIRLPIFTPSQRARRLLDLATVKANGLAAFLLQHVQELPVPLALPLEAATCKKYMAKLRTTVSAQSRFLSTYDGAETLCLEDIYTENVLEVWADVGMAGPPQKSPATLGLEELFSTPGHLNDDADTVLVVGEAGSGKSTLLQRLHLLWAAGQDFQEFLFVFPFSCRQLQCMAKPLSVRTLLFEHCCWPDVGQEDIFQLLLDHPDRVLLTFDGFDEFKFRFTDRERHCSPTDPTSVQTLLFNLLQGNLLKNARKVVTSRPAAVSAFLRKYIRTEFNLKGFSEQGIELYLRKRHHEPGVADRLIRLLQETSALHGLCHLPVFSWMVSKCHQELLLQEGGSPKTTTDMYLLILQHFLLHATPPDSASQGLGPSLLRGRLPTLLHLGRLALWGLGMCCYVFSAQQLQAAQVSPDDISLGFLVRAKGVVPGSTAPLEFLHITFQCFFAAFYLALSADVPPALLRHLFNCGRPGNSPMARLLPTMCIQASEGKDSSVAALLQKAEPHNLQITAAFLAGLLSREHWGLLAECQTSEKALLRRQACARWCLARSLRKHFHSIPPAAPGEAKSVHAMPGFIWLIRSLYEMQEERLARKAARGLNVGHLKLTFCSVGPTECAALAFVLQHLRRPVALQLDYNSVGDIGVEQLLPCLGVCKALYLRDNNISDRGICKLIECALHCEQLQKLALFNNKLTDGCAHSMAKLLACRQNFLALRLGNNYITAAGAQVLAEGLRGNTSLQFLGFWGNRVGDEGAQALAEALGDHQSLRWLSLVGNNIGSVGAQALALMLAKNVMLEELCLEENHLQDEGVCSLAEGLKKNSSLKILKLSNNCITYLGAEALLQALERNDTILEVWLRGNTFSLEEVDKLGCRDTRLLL

HEK293 [5] = assay: NOD2 signaling inhibitors in MDP-stimulated cells, cell-based, uHTS, luminescence (AID 2001); assay type: functional; details: Homo sapiens
HEK293 [6] = assay: cells; assay type: functional, cell-based; details: Homo sapiens; remark: listed apart in the source
[7] = molecular target: T1, Short transient receptor potential channel 4 (Mus musculus, UniProt Q9QUQ5); assay: mouse TRPC4 channel inhibitors, dose response, cell-based, HEK293 TRPC4/mu-opioid, Fluo-4 calcium (AID 434942); assay type: functional;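 also: potency of inhibitors blocking the TRPC4 calcium response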
T1 sequence (Q9QUQ5 whole entry): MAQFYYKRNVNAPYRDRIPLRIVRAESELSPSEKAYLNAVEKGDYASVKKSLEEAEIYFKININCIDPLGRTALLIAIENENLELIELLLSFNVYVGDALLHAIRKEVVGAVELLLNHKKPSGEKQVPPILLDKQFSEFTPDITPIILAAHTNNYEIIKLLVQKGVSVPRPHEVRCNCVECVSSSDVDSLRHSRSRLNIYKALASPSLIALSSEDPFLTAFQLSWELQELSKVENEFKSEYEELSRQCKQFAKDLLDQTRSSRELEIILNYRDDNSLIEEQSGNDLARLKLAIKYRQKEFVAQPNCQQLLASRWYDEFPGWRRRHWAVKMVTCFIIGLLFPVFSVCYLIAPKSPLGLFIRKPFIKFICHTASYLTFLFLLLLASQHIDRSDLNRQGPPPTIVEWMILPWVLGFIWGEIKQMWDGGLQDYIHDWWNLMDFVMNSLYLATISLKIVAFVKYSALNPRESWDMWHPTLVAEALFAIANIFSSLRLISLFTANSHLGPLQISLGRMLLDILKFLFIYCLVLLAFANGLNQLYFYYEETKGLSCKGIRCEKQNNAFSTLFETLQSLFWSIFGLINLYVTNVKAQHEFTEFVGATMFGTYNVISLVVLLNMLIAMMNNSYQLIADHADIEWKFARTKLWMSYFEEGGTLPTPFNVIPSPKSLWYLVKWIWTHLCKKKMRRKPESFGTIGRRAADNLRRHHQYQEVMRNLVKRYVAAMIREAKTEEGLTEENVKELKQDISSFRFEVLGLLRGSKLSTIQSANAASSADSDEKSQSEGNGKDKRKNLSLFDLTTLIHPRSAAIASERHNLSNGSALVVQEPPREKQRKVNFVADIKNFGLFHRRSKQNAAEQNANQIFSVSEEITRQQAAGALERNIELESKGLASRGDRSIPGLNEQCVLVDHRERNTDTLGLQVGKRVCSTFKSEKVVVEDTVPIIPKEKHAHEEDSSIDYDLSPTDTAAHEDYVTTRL

[8] = molecular target: Voltage-dependent T-type calcium channel subunit alpha-1H (Homo sapiens, UniProt O95180); assay type: functional;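 also: channel activity triggered by adding a high calcium stimulation buffer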
[9] = molecular target: T2, Carboxy-terminal domain RNA polymerase II polypeptide A small phosphatase 1 (Homo sapiens, UniProt Q9GZU7); assay: inhibitors of CTDSP1, concentration-response testing, biochemical assay, absorbance-based, actives from ultra-high-throughput screening (AID 540297); assay type: functional
T2 sequence (Q9GZU7 whole entry): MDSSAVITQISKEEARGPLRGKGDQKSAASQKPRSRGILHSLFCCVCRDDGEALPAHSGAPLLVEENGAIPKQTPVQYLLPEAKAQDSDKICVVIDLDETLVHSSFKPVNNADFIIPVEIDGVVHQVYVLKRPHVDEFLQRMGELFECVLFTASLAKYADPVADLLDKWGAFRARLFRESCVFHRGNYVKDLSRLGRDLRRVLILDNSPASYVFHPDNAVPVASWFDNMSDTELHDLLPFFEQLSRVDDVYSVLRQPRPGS

[10] = molecular target: Eukaryotic translation initiation factor 4E (Mus musculus, UniProt P63073); assay: eIF4E–eIF4G protein interaction inhibitors, dose response, biochemical, TR-FRET (AID 855); assay type: functional;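 also: potency for disrupting eIF4E binding to eIF4GI seen as loss of FRET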
Sequence of Eukaryotic translation initiation factor 4E (P63073 whole entry): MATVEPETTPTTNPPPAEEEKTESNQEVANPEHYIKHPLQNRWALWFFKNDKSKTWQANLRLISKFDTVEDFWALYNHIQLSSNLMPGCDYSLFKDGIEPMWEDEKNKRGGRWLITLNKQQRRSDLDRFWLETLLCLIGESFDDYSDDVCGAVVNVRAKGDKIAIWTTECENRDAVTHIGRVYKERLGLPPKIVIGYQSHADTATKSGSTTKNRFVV

Cytochrome P450 2C19 = Cytochrome P450 2C19 (Homo sapiens, UniProt P33261); assay: Cytochrome panel assay with activity outcomes. Panel member name: p450-cyp2c19 Compounds with AC50 equal or less than 10 uM are considered active; assay type: functional; details: read-out: AC50
Sequence of Cytochrome P450 2C19 (P33261 whole entry): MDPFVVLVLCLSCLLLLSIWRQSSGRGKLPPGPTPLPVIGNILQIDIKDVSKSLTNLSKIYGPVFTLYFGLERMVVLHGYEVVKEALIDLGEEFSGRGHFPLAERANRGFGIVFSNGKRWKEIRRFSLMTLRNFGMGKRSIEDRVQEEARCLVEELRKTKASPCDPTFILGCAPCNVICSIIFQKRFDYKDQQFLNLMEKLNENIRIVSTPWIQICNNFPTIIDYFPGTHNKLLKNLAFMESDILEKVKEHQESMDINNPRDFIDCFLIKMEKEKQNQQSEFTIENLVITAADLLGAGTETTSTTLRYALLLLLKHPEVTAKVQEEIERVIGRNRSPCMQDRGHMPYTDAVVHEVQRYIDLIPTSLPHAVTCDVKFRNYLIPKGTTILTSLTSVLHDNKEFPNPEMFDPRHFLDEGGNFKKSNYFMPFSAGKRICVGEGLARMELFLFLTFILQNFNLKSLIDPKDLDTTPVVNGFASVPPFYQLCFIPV

[11] = molecular target: T3, Voltage-gated N-type calcium channel alpha-1B subunit/Amyloid beta A4 precursor protein-binding family A member 1 (Homo sapiens, UniProt Q00975+Q02410); assay type: protein assay
T3 sequence (Q00975 whole entry): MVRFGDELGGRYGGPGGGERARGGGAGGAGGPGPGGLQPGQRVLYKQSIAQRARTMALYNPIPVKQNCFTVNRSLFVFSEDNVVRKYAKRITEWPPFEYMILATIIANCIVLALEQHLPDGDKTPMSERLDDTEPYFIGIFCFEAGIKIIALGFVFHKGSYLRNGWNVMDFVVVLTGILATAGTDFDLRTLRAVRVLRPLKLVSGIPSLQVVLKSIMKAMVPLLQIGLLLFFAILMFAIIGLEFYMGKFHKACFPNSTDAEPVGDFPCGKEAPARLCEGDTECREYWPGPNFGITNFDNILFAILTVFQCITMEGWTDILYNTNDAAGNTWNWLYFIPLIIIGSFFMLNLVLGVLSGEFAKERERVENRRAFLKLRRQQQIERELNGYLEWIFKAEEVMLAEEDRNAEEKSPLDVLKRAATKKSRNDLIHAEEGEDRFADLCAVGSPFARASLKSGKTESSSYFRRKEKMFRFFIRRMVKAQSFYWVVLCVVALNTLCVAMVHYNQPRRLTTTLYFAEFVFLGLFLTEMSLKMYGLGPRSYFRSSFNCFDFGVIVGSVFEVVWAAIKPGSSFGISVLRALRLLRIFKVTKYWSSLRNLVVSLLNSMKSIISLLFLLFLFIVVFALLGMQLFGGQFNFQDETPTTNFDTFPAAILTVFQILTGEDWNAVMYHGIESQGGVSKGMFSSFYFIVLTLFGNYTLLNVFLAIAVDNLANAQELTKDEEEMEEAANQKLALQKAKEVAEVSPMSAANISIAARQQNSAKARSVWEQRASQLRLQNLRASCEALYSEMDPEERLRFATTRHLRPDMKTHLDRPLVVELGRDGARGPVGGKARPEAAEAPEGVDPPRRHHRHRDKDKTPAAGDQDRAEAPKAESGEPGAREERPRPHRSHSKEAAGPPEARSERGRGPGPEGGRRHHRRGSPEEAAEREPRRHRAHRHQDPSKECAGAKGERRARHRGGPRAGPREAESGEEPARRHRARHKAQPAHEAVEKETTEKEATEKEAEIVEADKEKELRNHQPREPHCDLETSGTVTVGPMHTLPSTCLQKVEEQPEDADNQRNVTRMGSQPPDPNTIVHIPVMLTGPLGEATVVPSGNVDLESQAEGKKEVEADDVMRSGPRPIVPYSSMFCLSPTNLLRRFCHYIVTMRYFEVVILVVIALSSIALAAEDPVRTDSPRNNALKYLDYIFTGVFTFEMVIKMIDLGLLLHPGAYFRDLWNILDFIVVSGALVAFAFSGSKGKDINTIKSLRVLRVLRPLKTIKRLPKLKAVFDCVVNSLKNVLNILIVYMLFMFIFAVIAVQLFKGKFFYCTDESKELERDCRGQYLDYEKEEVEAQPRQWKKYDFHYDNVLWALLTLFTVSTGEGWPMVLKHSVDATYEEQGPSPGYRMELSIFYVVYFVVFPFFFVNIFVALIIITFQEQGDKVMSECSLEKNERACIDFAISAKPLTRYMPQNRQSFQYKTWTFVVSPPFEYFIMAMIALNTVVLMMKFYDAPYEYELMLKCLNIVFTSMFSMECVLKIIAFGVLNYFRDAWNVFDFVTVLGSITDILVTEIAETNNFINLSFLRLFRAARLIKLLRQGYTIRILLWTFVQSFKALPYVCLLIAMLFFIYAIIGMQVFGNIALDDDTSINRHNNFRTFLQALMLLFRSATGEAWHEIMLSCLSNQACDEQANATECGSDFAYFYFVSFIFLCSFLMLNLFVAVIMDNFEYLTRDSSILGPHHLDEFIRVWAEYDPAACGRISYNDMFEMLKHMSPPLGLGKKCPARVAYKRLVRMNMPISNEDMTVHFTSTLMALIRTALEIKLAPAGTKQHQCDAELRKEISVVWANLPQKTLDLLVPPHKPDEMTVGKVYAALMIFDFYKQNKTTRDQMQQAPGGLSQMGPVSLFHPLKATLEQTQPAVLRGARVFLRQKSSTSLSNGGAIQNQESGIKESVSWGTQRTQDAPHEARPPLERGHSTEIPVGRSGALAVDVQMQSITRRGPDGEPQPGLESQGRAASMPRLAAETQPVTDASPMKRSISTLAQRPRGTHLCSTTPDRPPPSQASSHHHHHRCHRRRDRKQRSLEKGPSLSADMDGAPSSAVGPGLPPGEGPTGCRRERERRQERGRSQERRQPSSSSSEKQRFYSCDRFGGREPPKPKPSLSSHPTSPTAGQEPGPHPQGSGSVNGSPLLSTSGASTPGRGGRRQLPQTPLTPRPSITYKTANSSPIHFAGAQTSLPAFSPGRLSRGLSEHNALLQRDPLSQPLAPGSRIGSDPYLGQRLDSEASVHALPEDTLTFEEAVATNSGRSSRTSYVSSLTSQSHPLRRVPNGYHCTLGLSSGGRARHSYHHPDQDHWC
T3 sequence (Q02410 whole entry): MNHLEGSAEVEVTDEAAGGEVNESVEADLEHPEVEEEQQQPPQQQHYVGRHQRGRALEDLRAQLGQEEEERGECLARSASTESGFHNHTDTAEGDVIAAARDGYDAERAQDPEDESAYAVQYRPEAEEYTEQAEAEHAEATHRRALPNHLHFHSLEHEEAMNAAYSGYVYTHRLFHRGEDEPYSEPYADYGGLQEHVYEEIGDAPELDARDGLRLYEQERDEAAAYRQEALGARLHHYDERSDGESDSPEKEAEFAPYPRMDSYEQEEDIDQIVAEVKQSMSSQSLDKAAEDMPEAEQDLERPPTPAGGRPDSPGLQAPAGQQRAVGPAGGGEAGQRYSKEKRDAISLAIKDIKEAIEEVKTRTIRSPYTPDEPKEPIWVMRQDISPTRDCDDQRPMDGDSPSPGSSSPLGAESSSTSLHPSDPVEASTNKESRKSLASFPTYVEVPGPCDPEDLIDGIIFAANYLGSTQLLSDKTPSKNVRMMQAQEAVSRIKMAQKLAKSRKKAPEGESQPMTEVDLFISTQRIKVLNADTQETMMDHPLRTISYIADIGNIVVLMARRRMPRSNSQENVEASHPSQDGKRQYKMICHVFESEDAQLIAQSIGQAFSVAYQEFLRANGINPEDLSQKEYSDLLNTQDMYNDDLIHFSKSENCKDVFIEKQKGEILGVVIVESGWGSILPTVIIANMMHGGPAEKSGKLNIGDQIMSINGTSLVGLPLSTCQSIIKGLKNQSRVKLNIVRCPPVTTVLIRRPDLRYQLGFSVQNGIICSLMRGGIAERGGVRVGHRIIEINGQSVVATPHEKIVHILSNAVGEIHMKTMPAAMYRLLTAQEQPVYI

[12] = molecular target: T3, Voltage-gated N-type calcium channel alpha-1B subunit/Amyloid beta A4 precursor protein-binding family A member 1; assay type: protein assay; remark: listed apart in the source
[13] = molecular target: T4, Ubiquitin-conjugating enzyme E2 N (Homo sapiens, UniProt P61088); assay type: functional;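 also: Dose-response confirmation in a TR-FRET assay detecting UBC13-driven polyubiquitin chain formation, inhibition measured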
T4 sequence (P61088 whole entry): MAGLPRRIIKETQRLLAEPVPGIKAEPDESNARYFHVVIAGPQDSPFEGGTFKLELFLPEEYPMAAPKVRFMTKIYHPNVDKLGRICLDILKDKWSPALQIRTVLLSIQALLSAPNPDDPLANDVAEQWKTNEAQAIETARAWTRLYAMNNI

[14] = growth suppression of PTEN-null colon cells, dose response, cell-based, HCT116 PTEN knockout (AID 1047); assay type: functional;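 also: HCT116 colon tumor cells with PTEN knocked out; cells exposed to compound for 60 hours before readout; potency for loss of cell viability measured by luminescence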
INS1 = assay: beta cell apoptosis inhibitors, cytokine rescue, dose response, luminescence, retest (AID 449756); assay type: functional, cell-based; details: Rattus norvegicus;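 also: cell death triggered by IL-1 beta plus TNF-alpha plus IFN-gamma mixture; protective hits raise ATP signal compared with cytokine alone wells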
[15] = molecular target: T5, Corticotropin-releasing factor receptor 2/Corticotropin-releasing factor-binding protein (Homo sapiens, UniProt P24387+Q13324); assay: activators of CRF receptor 2 with binding protein – uHTS hits, confirmation (AID 602473); assay type: functional; details: read-out: EC50_Mean
T5 sequence (Q13324 whole entry): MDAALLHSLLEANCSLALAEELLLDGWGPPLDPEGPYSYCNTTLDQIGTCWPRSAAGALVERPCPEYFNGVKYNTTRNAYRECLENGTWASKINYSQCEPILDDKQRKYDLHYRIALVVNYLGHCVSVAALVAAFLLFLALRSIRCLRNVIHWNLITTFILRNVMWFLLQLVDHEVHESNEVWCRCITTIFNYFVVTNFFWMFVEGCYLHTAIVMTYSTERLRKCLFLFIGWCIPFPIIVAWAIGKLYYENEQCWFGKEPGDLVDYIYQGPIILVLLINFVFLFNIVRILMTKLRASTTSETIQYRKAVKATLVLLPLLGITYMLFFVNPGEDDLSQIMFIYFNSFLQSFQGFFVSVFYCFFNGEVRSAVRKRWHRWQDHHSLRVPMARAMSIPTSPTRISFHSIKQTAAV
T5 sequence (P24387 whole entry): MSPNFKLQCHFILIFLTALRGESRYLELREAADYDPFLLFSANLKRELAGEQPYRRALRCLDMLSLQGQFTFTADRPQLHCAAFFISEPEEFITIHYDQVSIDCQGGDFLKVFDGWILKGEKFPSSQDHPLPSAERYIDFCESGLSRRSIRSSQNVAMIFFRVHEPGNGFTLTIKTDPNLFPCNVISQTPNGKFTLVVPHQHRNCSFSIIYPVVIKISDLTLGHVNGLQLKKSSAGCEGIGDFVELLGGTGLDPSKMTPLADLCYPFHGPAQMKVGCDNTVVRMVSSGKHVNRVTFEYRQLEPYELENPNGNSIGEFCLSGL

Streptokinase A = molecular target: T6, Streptokinase A (Streptococcus pyogenes serotype M1, UniProt P10520); assay: S. pyogenes streptokinase expression inhibitors, potency, dose response, plasminogen activation absorbance, OD405 (AID 1914); assay type: functional, Streptococcus pyogenes M1 GAS;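 also: secreted streptokinase activity via plasminogen activation per viability signal from cell pellet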
T6 sequence (P10520 whole entry): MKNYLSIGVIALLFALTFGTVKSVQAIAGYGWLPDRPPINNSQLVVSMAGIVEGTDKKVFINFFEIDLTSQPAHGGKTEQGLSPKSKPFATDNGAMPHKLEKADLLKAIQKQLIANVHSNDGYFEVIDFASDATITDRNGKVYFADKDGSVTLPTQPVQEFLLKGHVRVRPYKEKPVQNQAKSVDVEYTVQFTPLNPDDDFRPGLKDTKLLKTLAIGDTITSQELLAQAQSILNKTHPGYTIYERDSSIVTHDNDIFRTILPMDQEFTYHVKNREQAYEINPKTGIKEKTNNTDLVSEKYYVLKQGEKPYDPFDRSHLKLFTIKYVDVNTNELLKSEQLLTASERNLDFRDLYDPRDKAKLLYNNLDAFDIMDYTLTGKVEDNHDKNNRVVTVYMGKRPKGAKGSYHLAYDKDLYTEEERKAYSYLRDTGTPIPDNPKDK

[16] = test system: Streptococcus sp. 'group A'; assay: growth inhibition of control SK(-) GAS strain, dose response, counter-screen for streptokinase expression inhibitor project, luminescence, kanamycin, BacTiterGlo, confirmation (AID 1900); assay type: functional, organism-based
Streptococcus = assay: Group A Streptococcus viability loss, dose response, counter-screen for streptokinase expression inhibitor project, luminescence, BacTiterGlo (AID 1915); assay type: functional, organism-based;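 also: potency for reduction of bacterial viability or growth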
[17] = molecular target: T7, Zinc finger protein mex-5 (Caenorhabditis elegans, UniProt Q9XUB2); assay: MEX-5/TCR-2 RNA interaction inhibitors, dose response, biochemical, C. elegans, fluorescence polarization (AID 1960)
T7 sequence (Q9XUB2 whole entry): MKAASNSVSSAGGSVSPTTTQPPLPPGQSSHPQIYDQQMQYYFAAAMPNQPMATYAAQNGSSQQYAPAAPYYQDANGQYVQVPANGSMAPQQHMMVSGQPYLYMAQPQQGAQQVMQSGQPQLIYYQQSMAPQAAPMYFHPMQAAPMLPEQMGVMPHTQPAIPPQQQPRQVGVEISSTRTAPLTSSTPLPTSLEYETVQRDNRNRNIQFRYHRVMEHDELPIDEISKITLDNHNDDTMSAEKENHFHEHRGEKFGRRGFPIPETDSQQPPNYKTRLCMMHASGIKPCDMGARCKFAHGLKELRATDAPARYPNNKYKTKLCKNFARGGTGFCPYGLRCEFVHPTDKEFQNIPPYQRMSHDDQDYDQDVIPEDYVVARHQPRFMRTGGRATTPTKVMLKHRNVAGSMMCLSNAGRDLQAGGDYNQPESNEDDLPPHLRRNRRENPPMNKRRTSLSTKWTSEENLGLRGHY

[18] = molecular target: T8, RNA-binding protein pos-1 (Caenorhabditis elegans, UniProt G5EF15); assay: inhibitors of POS-1/mex-3 RNA binding, dose response, biochemical, fluorescence polarization (AID 1964);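 also: purified POS-1 fused to maltose binding protein made in E. coli; potency of compounds blocking POS-1 binding to fluorescent RNA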
T8 sequence (G5EF15 whole entry): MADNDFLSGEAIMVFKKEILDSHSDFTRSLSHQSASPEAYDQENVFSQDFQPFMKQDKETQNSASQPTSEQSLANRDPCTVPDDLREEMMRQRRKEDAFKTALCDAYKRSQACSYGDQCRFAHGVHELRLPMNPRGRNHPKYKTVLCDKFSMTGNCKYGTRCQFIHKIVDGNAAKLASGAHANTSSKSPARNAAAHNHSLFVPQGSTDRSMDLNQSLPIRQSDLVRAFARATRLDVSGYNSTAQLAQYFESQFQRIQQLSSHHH

COc1ccccc1N1CCN(c2ncnc3sc(C)c(-c4ccccc4)c23)CC1
IC50 (HEK293 [1]): > 20 µM (inactive)
EC50 (HEK293 [2]): 5.48 µM (active)
IC50 (HEK293 [3]): 17.2 µM (active)
EC50 [4]: 11.5 µM (active)
IC50 (HEK293 [5]): 6.98 µM (active)
IC50 (HEK293 [6]): 6.68 µM (active)

OCC(Cc1ccccc1)NCc1ccccc1C(F)(F)F (stereo unspecified)
EC50 [7]: 8.41 µM (active)

Cc1cccc(-c2noc(CN(C(=O)c3ccc(Br)o3)C(C)C)n2)c1
EC50 [8]: 11.1 µM (active)

O=C(COC(=O)c1cccc([N+](=O)[O-])c1)c1ccc2c(c1)OCO2
EC50 [7]: 0.0027 µM (active)

O=C(COC(=O)c1cc(-c2ccccc2Cl)nc2ccccc12)Nc1ncc(C(F)(F)F)cc1Cl
IC50 [9]: 39 µM (active)

O=C(O)c1cc(-c2ccccc2)n(-c2ccccc2C(=O)O)n1
IC50 [10]: > 64 µM (inactive)

Cc1cc(NC(=O)C(C)Oc2ccc(Cl)cc2Cl)n(-c2ccccc2)n1 (stereo unspecified)
EC50 [8]: 8.91 µM (active)

COc1ccc(NC2=NCC(=O)N2Cc2cccs2)cc1
AC50 (Cytochrome P450 2C19): 8.91 µM (inconclusive)
IC50 [10]: > 64 µM (inactive)

CCC(=O)N1CCc2cc(S(=O)(=O)NCCN3CCCCC3CC)ccc21 (stereo unspecified)
EC50 [7]: 2.66 µM (active)

CC(=O)Nc1ccc(NC(=O)c2cc(-c3ccc(C)c(C)c3O)[nH]n2)cc1
IC50 [11]: 23.2 µM (active)
IC50 [12]: > 50 µM (inactive)

CCOC(=O)/C=C/C(=O)Nc1ccc(S(=O)(=O)N(C)c2ccccc2)cc1
IC50 (HEK293 [1]): 16.3 µM (active)
EC50 (HEK293 [2]): 4.41 µM (active)
IC50 (HEK293 [3]): > 20 µM (inactive)
EC50 [4]: > 20 µM (inactive)
IC50 (HEK293 [5]): 4.98 µM (active)
IC50 (HEK293 [6]): 5.26 µM (active)

O=C(CCCCCN1C(=O)c2cccc3cccc(c23)C1=O)NCCO
IC50 [13]: > 20 µM (inactive)

CC(C)NCC(O)COCCOc1ccc(C(C)(C)C)cc1 (stereo unspecified)
EC50 [7]: 1.06 µM (active)

COC(=O)c1ccccc1NC(=O)c1cc(-c2ccco2)on1
IC50 [11]: 13.7 µM (active)
IC50 [12]: > 50 µM (inactive)

Cc1ccc(Cn2nc(C)c(NC(=O)CSc3nc4c(c(C(F)(F)F)n3)CCc3ccccc3-4)c2C)cc1
IC50 [10]: > 64 µM (inactive)
EC50 [14]: 21 µM (active)

CNC(=O)c1sc(N2N=C3/C(=C/c4ccccc4)CCCC3C2c2ccccc2)nc1C (stereo unspecified)
EC50 [8]: 9.13 µM (active)
AC50 (INS1): 6.72 µM (active)
EC50 [15]: 16.1 µM (active)

CCN(CC)S(=O)(=O)c1ccc(NC(=O)c2cc(C(=O)OC)cc([N+](=O)[O-])c2)cc1
IC50 [10]: > 64 µM (inactive)

CC(C(=O)N1CCCCC1)N1CCN(S(=O)(=O)c2ccc(Cl)cc2)CC1 (stereo unspecified)
IC50 [9]: 54.9 µM (active)

COc1ccc(/C=N/NC(=O)Cc2csc(Nc3cccc(C(F)(F)F)c3)n2)cc1C
EC50 [8]: 4.82 µM (active)
EC50 (Streptokinase A): 10.4 µM (active)
EC50 [16]: 9.89 µM (active)
EC50 (Streptococcus): > 150 µM (not active)

Cc1ccc(/N=C/c2nc(-c3ccc(C)cc3)oc2O)cc1
EC50 [17]: 68.7 µM (active)
IC50 [10]: 50 µM (inactive)
EC50 [18]: 32.6 µM (active)
